Source: PMC8879119, “α-Glucosidase Inhibitory Activity and Anti-Adipogenic Effect of Compounds from Dendrobium delacourii” (Molecules, 2022)
Where two headings read alike, the source gives them in different places.

Columns and labels:
[1] = target: T1, α-glucosidase (Saccharomyces cerevisiae, UniProt P53341); assay: biochemical
T1 construct: purchased Sigma-Aldrich (St. Louis, MO, USA)
Method: In this study, each compound was initially tested at 100 μg/mL.
(§1) Mass spectra were recorded on a Bruker micro TOF mass spectrometer (ESI-MS). NMR spectra were recorded on a Bruker Avance DPX-300FT-NMR spectrometer or a Bruker Avance III HD 500 NMR spectrometer. Vacuum-liquid column chromatography (VLC) and column chromatography (CC) were performed on silica gel 60 (Merck, Kieselgel 60, 70–320 mesh), silica gel 60 (Merck, Kieselgel 60, 230–400 mesh) (Darmstadt, Germany), and Sephadex LH-20 (25–100 μm, Pharmacia Fine Chemical Co. Ltd.) (Piscataway, NJ, USA). […] Mouse embryonic preadipocyte 3T3-L1 cells were acquired from the American Type Culture Collection (ATCC, Manassas, VA, USA). Dulbecco’s modified Eagle medium (DMEM), fetal bovine serum (FBS), penicillin/streptomycin, and L-glutamine were obtained from Gibco (Gaithersburg, MA, USA). Yeast alpha-glucosidase enzyme, p-nitrophenol-α-D-glucopyranoside, isobutylmethylxanthine, dexamethasone, MTT (methyl-thiazolyl-diphenyl-tetrazolium bromide), Hoechst33342, propidium iodide, dimethylsulfoxide (DMSO), and oil red O were purchased from Sigma-Aldrich (St. Louis, MO, USA). Insulin was obtained from Himedia (Mumbai, India). The radio-immunoprecipitation assay (RIPA) buffer, chemiluminescent substrates, and the bicinchoninic acid (BCA) protein assay kit were from Thermo Scientific (Rockford, IL, USA), and the nitrocellulose membranes were from Bio-Rad Laboratories (Hercules, CA, USA). All primary and secondary antibodies were purchased from Cell Signaling Technology (Danvers, MA, USA). Oxyresveratrol was provided by Prof. Kittisak Likhitwitayawuid.
The assay was based on the inhibition in the sample of α-glucosidase enzyme, which can release p-nitrophenol (PNP) from p-nitrophenyl-α-D-glucoside (PNPG) by hydrolysis. […] For IC50 determination, twofold serial dilution was performed for each sample. Each experiment was accomplished in triplicate. Data are expressed as mean ± SD.

[2] = target: T1, α-glucosidase; assay: biochemical; type: biochemical; details: for type of enzyme inhibition: Lineweaver–Burk plots; for Ki: from secondary plot of slopes versus inhibitor concentration, read-out: Ki (inhibitor constant)
Method: The experiment was performed by using Lineweaver–Burk plots of the reciprocal of velocity (1/V) against the reciprocal of substrate concentration (1/[S]) (Figure 2). […] A secondary plot of each compound was then constructed to evaluate the inhibition constant (Ki).
as §1
The kinetic study of enzyme inhibition was analyzed by the double reciprocal Lineweaver–Burk plot (1/V versus 1/[S]). […] The reaction was monitored every 5 min for a total time of 25 min and measured at 405 nm by a microplate reader. Each experiment was performed in triplicate. The Ki value was estimated by constructing a secondary plot which is plotted by the slopes of the double-reciprocal lines versus inhibitor concentration.

[3] = system: 3T3-L1 cells; assay: adipocyte differentiation / lipid accumulation by oil red O staining; type: cell-based, Mouse; details: for IC50: Mus musculus, 3T3-L1, 0–50 µM, oil red O staining, 3T3-L1 cells; for reduction in oil red O staining: differentiated 3T3-L1 cells
Method: Mouse embryonic preadipocyte 3T3-L1 cells were cultured in DMEM containing 10% FBS, 100 units/mL of penicillin/streptomycin, and 2 mmol/L of L-glutamine under humidified conditions of 5% CO2 at 37 °C until 70–80% confluence was reached. For differentiation into adipocyte, preadipocyte 3T3-L1 cells were incubated with differentiation media composed of 10% FBS, 0.5 mM isobutylmethylxanthine, 1 μM dexamethasone, and 5 µg/mL insulin in DMEM with or without test compound for 2 days. Then, the differentiation media was replaced with culture media containing 5 µg/mL of insulin. After further incubation for 2 days, the cells were maintained in complete DMEM, which was changed every 2 days until adipocytes containing lipid droplets were observed under microscope.
The lipid droplets presenting in differentiated adipocytes were detected via oil red O staining. After the differentiation process, 3T3-L1 cells were fixed with 10% formalin for 45 min and further incubated with oil red O solution at room temperature for 1 h. After washing with 60% isopropanol for three times, oil red O-stained cells were captured using a Nikon Ts2 inverted optical microscope (Tokyo, Japan). For quantification, cellular oil red O was extracted using absolute isopropanol for measurement of OD at 570 nm by microplate reader (Anthros, Durham, NC, USA). The percentage of oil red O staining was calculated relative to the total protein content determined by BCA assay.

[4] = system: 3T3-L1 cells; assay: MTT viability assay in preadipocytes; type: cell-based, Mouse; details: 20 µM, 48 h
Method: To evaluate the effect of D. delacourii extracts on cell viability, 3T3-L1 preadipocytes were seeded into 96-well plates at density of 2 × 10^3 cells/well and allowed to attach overnight at 37 °C. Then, the cells were further cultured with extracts (5 μg/mL), compounds (20 μM), or left untreated for 48 h before adding of 0.45 mg/mL MTT solution to assess cell viability. After incubation for 3 h at 37 °C and kept from light, the optical density (OD) of the purple formazan product dissolved in DMSO was measured at 570 nm using a microplate reader (Anthros, Durham, NC, USA). The relative OD ratio of treated to non-treated cells was presented as percentage cell viability.

[5] = system: PPARγ; assay: Western blot of PPARγ in differentiating 3T3-L1 cells; type: cell-based, Mouse; details: 20 µM, 38 h and 48 h, versus untreated control
Method: (§2) Adipogenesis involves a network of transcription factors that contribute to adipocyte differentiation and lipid accumulation. Although the adipogenic gene CCAAT-enhancer-binding protein beta (C/EBPβ) is expressed soon after exposure to the adipogenic inducers, the upregulation of PPARγ and C/EBPα is acquired after 36–48 h of the induction. In this regard, the translational level of PPARγ and C/EBPα was examined to elucidate the anti-adipogenic mechanism in preadipocyte 3T3-L1 cells cultured with 20 µM densifloral B (3) at both early (38 h) and late (48 h) stage. Western blot analysis indicated the prolong expression of PPARγ and C/EBPα, the adipogenic transcription factors, in 3T3-L1 cells from early until late stage of adipogenic process. […]
(§3) After the indicated treatment, 3T3-L1 cells were washed with phosphate-buffered saline (PBS, pH 7.4), then the cell membranes were broken using RIPA buffer supplemented with a protease inhibitor cocktail. After incubation on ice for 45 min, the cell lysates were centrifuged at 12,000 rpm at 4 °C for 15 min to collect the clear supernatant containing cellular protein, which was measured for total protein content using a BCA assay kit. […] The reactive protein signals exposed with chemiluminescent substrates were captured and quantified using Chemiluminescent ImageQuant LAS 4000 (GE Healthcare Bio-Sciences AB, Björkgatan, Uppsala, Sweden).

[6] = system: C/EBPα; assay: Western blot of C/EBPα in differentiating 3T3-L1 cells; type: cell-based, Mouse; details: 20 µM, 38 h and 48 h, versus untreated control
Method: as §2, §3

[7] = system: p-AMPKα; assay: Western blot of p-AMPKα in differentiating 3T3-L1 cells; type: cell-based, Mouse; details: 20 µM, 38 h and 48 h
Excerpt: (§4) Recent reports indicate that the downregulation of PPARγ and C/EBPα are correlated with the activation of AMPKα/β and ACC [43]. […] The increased expression level of p-ACC/ACC (Figure 5b), p-AMPKα/AMPKα (Figure 5c), and p-AMPKβ1/AMPKβ1/2 (Figure 5f) was correlated with suppression of PPARγ and C/EBPα protein expression (Figure 4e) as well as lipid accumulation in differentiated 3T3-L1 cells (Figure 4a). The results presented in this study correspond with the evidence of the stimulation of AMPK and ACC protein being associated with the inhibition of 3T3-L1 adipocyte differentiation.
as §3, with “kit. The total protein (30 µg) from each sample was loaded and separated onto 10% sodium dodecyl sulfate-polyacrylamide gel electrophoresis (SDS-PAGE).” for “kit.”

[8] = system: p-AMPKβ1; assay: Western blot of p-AMPKβ1 in differentiating 3T3-L1 cells; type: cell-based, Mouse; details: 20 µM, 38 h and 48 h
Excerpt: as §4
as §3, with “kit. The total protein (30 µg) from each sample was loaded and separated onto 10% sodium dodecyl sulfate-polyacrylamide gel electrophoresis (SDS-PAGE).” for “kit.”

[9] = system: p-ACC; assay: Western blot of p-ACC in differentiating 3T3-L1 cells; type: cell-based, Mouse; details: 20 µM, 38 h and 48 h
Excerpt: as §4
as §3, with “kit. The total protein (30 µg) from each sample was loaded and separated onto 10% sodium dodecyl sulfate-polyacrylamide gel electrophoresis (SDS-PAGE).” for “kit.”

[10] = system: p-Akt; assay: Western blot of p-Akt in differentiating 3T3-L1 cells; type: cell-based, Mouse; details: 20 µM, 38–48 h
Excerpt: as §4
as §3, with “kit. The total protein (30 µg) from each sample was loaded and separated onto 10% sodium dodecyl sulfate-polyacrylamide gel electrophoresis (SDS-PAGE).” for “kit.”

[11] = system: p-GSK3β/GSK3β; assay: Western blot of p-GSK3β/GSK3β in differentiating 3T3-L1 cells; type: cell-based, Mouse; details: 20 µM, 38–48 h
Excerpt: Due to the expression of adipogenic transcription factors also modulated via Akt/GSK3β [46, 47, 48], the alteration of the p-GSK3β/GSK3β level was additionally examined in densifloral B-treated 3T3-L1 cells. The phosphorylation by p-Akt results in the inactivation of the GSK3β degradation complex following the initiation of targeted gene expression.
as §3, with “kit. The total protein (30 µg) from each sample was loaded and separated onto 10% sodium dodecyl sulfate-polyacrylamide gel electrophoresis (SDS-PAGE).” for “kit.”

[12] = system: 3T3-L1 cells; assay: cell death detection by Hoechst33342/propidium iodide costaining; type: cell-based; details: 20 µM, 48 h
Method: The cytotoxicity of D. delacourii extracts was confirmed via cell death detection using costaining of Hoechst33342 and propidium iodide. After 48 h incubation with indicated treatment, the cells were further incubated with nuclear staining solution containing 2 μg/mL of Hoechst33342 and 1 μg/mL of propidium iodide for 30 min. The mode of cell death was observed under a fluorescence microscope (Olympus IX51 with DP70, Olympus Corp., Shinjuku-ku, Tokyo, Japan).

[13] = read-out: α-Glucosidase inhibitory activity IC50
[14] = inhibitor dose 12 μM, substrate 0.25-2.0 mM

T1 sequence (P53341 whole entry): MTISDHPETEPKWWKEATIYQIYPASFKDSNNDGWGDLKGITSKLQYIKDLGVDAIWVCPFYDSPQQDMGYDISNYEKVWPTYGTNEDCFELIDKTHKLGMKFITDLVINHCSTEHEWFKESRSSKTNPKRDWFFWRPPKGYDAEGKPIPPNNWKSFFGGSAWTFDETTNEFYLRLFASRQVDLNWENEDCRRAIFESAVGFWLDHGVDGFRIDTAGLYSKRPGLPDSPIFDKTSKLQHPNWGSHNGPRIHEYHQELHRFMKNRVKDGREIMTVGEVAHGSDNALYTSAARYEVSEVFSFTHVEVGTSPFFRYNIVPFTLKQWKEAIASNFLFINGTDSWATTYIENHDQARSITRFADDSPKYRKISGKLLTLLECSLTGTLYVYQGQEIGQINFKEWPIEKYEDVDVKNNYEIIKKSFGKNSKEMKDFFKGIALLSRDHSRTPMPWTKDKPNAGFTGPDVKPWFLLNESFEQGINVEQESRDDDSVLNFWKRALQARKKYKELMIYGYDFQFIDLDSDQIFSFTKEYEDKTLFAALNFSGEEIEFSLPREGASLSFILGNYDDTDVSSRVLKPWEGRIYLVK

Q: With COc1cc(O)c2c(c1-c1c(OC)cc(O)c3c1CCc1cc(O)ccc1-3)CCc1cc(O)ccc1-2 [4,4′,7,7′-tetrahydroxy-2,2′-dimethoxy-9,9′,10,10′-tetrahydro-1,1′-biphenanthrene] as the compound, how does the IC50 [1] read?
A: 18.4 ± 3.4 µM

Q: What does the source list for C[C@H]1O[C@H](O[C@H]2[C@H](O)[C@@H](O)[C@@H](O[C@H]3[C@H](O)[C@@H](O)C(O)O[C@@H]3CO)O[C@@H]2CO)[C@H](O)[C@@H](O)[C@@H]1N[C@H]1C=C(CO)[C@@H](O)[C@H](O)[C@H]1O (some centres unmarked) [Acarbose, acarbose, reference compound]?
A: type of enzyme inhibition [2]: competitive type of inhibition; Km ([2]; inhibitor dose 465 μM): 4.17 mM; Vmax ([2]; inhibitor dose 465 μM): 0.10 ∆OD/min; Km ([2]; inhibitor dose 930 μM): 6.47 mM; Vmax ([2]; inhibitor dose 930 μM): 0.11 ∆OD/min

Q: What does the source list for COC1=CC(=O)c2c(ccc3cc(O)ccc23)C1=O [Densifloral B (3), densifloral B]?
A: IC50 [3]: 14.8 ± 1.6 µM; reduction in oil red O staining ([3]; at 20 µM): ~65.2%; viability / cytotoxicity in 3T3-L1 cells [4]: no cytotoxicity; expression level of PPARγ [5]: restrained; expression level of C/EBPα [6]: restrained; phosphorylated AMPKα (p-AMPKα) [7]: upregulated; phosphorylated AMPKβ1 (p-AMPKβ1) [8]: upregulated; phosphorylated ACC (p-ACC) [9]: upregulated; activated Akt (p-Akt) [10]: suppressed; p-GSK3β/GSK3β expression level [11]: significantly lessened

Q: What does the source list for COC1=CC(=O)C2=C(CCc3cc(O)ccc32)C1=O [Ephemeranthoquinone (2), ephemeranthoquinone]?
A: reduction in oil red O staining ([3]; at 20 µM): approximately 64.7%; viability / cytotoxicity in 3T3-L1 cells [4]: significantly decreased viability

Q: How did the IC50 [1, 13] turn out when COc1cc(O)cc(CCc2ccc(O)c(OC)c2)c1 [Gigantol (6), gigantol] was run?
A: 191 ± 6.8 µM

Q: How did the IC50 [1, 13] turn out when COc1cc(O)c2c(c1)CCc1cc(O)ccc1-2 [Lusianthridin (8), lusianthridin] was run?
A: 195 ± 9.6 µM

Q: With COc1cc(O)cc2ccc3cccc(O)c3c12 [Moscatin (4), moscatin] as the compound, how does the IC50 [1, 13] read?
A: 390 ± 9.8 µM

Q: How did the IC50 [1, 13] turn out when COc1cc(O)c2c(c1)CCc1cc(O)c(-c3c(OC)cc(O)c4c3CCc3cc(O)ccc3-4)cc1-2 [Phoyunnanin C (11), phoyunnanin C] was run?
A: 12.6 ± 0.9 µM

Q: And the “type of enzyme inhibition” value [2]?
A: non-competitive

Q: What about the Ki [2] of the same compound?
A: 5.97 µM

Q: And the Vmax [2, 14]?
A: 0.049 ∆OD/min

Q: And the Vmax ([2]; inhibitor dose 24 μM, substrate 0.25-2.0 mM)?
A: 0.023 ∆OD/min

Q: What does the source list for COc1cc(O)c2c(c1)CCc1cc(Oc3c(OC)cc(O)c4c3CCc3cc(O)ccc3-4)ccc1-2 [Phoyunnanin E (10), phoyunnanin E]?
A: IC50 [1, 13]: 8.9 ± 0.8 µM; type of enzyme inhibition [2]: non-competitive; Ki [2]: 5.89 µM; Vmax [2, 14]: 0.049 ∆OD/min; Vmax ([2]; inhibitor dose 22 μM, substrate 0.25-2.0 mM): 0.024 ∆OD/min

Q: Which results are given for Oc1cc(O)cc(/C=C/c2ccc(O)cc2O)c1 [oxyresveratrol, reference compound]?
A: IC50 [3]: 21.1 ± 1.5 µM; oil red O staining percentage compared with control (in words) ([3]; at 20 µM): lower oil red O staining percentage; viability / cytotoxicity in 3T3-L1 cells [4]: no change; cell death [12]: no change
